In PMC11859928, “Design, Synthesis, and Antiproliferative Activity of Novel Indole/1,2,4-Triazole Hybrids as Tubulin Polymerization Inhibitors” (Pharmaceuticals, 2025):

Assays:
[1] = tested on: ACHN; assay: NCI one-dose assay; assay type: cell-based; conditions: Homo sapiens, Renal cancer, read-out: Cell growth inhibition %
[2] = tested on: BT-549; assay: NCI one-dose assay; assay type: cell-based; conditions: Homo sapiens, BT-549, Breast cancer, read-out: Cell growth inhibition %
[3] = tested on: CAKI-1; assay: NCI one-dose assay; assay type: cell-based; conditions: Homo sapiens, CAKI-1, Renal cancer, read-out: Cell growth inhibition %
[4] = tested on: CCRF-CEM; assay: NCI one-dose assay; assay type: cell-based; conditions: Homo sapiens, Leukemia, read-out: Cell growth inhibition %
[5] = tested on: COLO 205; assay: NCI one-dose assay; assay type: cell-based; conditions: Homo sapiens, COLO 205, Colon cancer, read-out: Cell growth inhibition %
[6] = tested on: HCT-116; assay: NCI one-dose assay; assay type: cell-based; conditions: Homo sapiens, HCT-116, Colon cancer, read-out: Cell growth inhibition %
[7] = tested on: HCT-15; assay: NCI one-dose assay; assay type: cell-based; conditions: Homo sapiens, HCT-15, Colon cancer, read-out: Cell growth inhibition %
[8] = tested on: HOP-62; assay: NCI one-dose assay; assay type: cell-based; conditions: Homo sapiens, HOP-62, Non-small cell lung cancer, read-out: Cell growth inhibition %
[9] = tested on: KM12; assay: NCI one-dose assay; assay type: cell-based; conditions: Homo sapiens, KM12, Colon cancer, read-out: Cell growth inhibition %
[10] = tested on: MCF7; assay: NCI one-dose assay; assay type: cell-based; conditions: Homo sapiens, MCF7, Breast cancer, read-out: Cell growth inhibition %
[11] = tested on: MDA-MB-435; assay: NCI one-dose assay; assay type: cell-based; conditions: Homo sapiens, MDA-MB-435, Melanoma, read-out: Cell growth inhibition %
[12] = tested on: MDA-MB-468; assay: NCI one-dose assay; assay type: cell-based; conditions: Homo sapiens, MDA-MB-468, Breast cancer, read-out: Cell growth inhibition %
[13] = tested on: MOLT-4; assay: NCI one-dose assay; assay type: cell-based; conditions: Homo sapiens, MOLT-4, Leukemia, read-out: Cell growth inhibition %
[14] = tested on: NCI-H226; assay: NCI one-dose assay; assay type: cell-based; conditions: Homo sapiens, NCI-H226, Non-small cell lung cancer, read-out: Cell growth inhibition %
[15] = tested on: NCI-H322M; assay: NCI one-dose assay; assay type: cell-based; conditions: Homo sapiens, Non-small cell lung cancer, read-out: Cell growth inhibition %
[16] = tested on: PC-3; assay: NCI one-dose assay; assay type: cell-based; conditions: Homo sapiens, PC-3, Prostate cancer, read-out: Cell growth inhibition %
[17] = tested on: RPMI-8226; assay: NCI one-dose assay; assay type: cell-based; conditions: Homo sapiens, RPMI-8226, Leukemia, read-out: Cell growth inhibition %
[18] = tested on: RXF 393; assay: NCI one-dose assay; assay type: cell-based; conditions: Homo sapiens, RXF 393, Renal cancer, read-out: Cell growth inhibition %
[19] = tested on: SF-295; assay: NCI one-dose assay; assay type: cell-based; conditions: Homo sapiens, SF-295, CNS cancer, read-out: Cell growth inhibition %
[20] = tested on: SK-MEL-2; assay: NCI one-dose assay; assay type: cell-based; conditions: Homo sapiens, SK-MEL-2, Melanoma, read-out: Cell growth inhibition %
[21] = tested on: SNB-75; assay: NCI one-dose assay; assay type: cell-based; conditions: Homo sapiens, SNB-75, CNS cancer, read-out: Cell growth inhibition %
[22] = tested on: UACC-62; assay: NCI one-dose assay; assay type: cell-based; conditions: Homo sapiens, UACC-62, Melanoma, read-out: Cell growth inhibition %
[23] = tested on: NCI 60 cell lines; assay: NCI one-dose assay, full panel; assay type: cell-based, human; conditions: for anticancer activity (in words): across all cell lines, 10 µM
Description: The National Cancer Institute (NCI), Bethesda, USA, selected the final compounds 6a–j and 7a–j for in vitro anticancer screening. An initial in vitro single-dose anticancer experiment was performed with the entire NCI 60 cell lines derived from nine tumor subpanel cancer cell lines. The results for each compound were illustrated as a mean graph showing the percentage growth of treated cells compared to untreated control cells (see Supplementary Materials).
The NCI anticancer screening process has been thoroughly detailed. The Drug Evaluation Branch of the National Cancer Institute in Bethesda, […], USA, established the procedure and conducted the anticancer assay on 60 human tumor cell lines from nine neoplastic cancers.

Row | SMILES | inhibition at 10 µM [1] [%] | inhibition at 10 µM [2] [%] | inhibition at 10 µM [3] [%] | inhibition at 10 µM [4] [%] | inhibition at 10 µM [5] [%] | inhibition at 10 µM [6] [%] | inhibition at 10 µM [7] [%] | inhibition at 10 µM [8] [%] | inhibition at 10 µM [9] [%] | inhibition at 10 µM [10] [%] | inhibition at 10 µM [11] [%] | inhibition at 10 µM [12] [%] | inhibition at 10 µM [13] [%] | inhibition at 10 µM [14] [%] | inhibition at 10 µM [15] [%] | inhibition at 10 µM [16] [%] | inhibition at 10 µM [17] [%] | inhibition at 10 µM [18] [%] | inhibition at 10 µM [19] [%] | inhibition at 10 µM [20] [%] | also measured
1 | C=CCn1c(SC/C(=N\O)c2ccc(Cl)cc2)nnc1-c1c[nH]c2ccccc12 [Compound 7e, (Z)-2-((4-allyl-5-(1H-indol-3-yl)-4H-1,2,4-triazol-3-yl)thio)-1-(4-chlorophenyl) Ethanone Oxime] | 10.2 | 14.4 | 25.4 | 17.2 | 0.1 | 36.1 | 21.7 | 7.33 | 4.48 | 13.3 | 10.7 | 43.1 | 40 | 30.4 | 11.9 | 24.4 | 29.7 | 5.62 | 25 | 3.64 | inhibition at 10 µM [21]: 4.75%; inhibition at 10 µM [22]: 35.8%; inhibition at 10 µM ([23]; Homo sapiens, HL-60(TB), K-562, MOLT-4, HCT-116, UACC-62, UO-31, T-47D, MDA-MB-468, read-out: growth inhibition percentage, range): 35 to 46.5%
2 | C=CCn1c(SCC(=NO)c2ccc(OC)cc2)nnc1-c1c[nH]c2ccccc12 [Compound 7b, 2-((4-allyl-5-(1H-indol-3-yl)-4H-1,2,4-triazol-3-yl)thio)-1-(4-methoxyphenyl) Ethanone Oxime] | 7.56 | -3.8 | 1.5 | 8.83 | -11.9 | 23.6 | 4.34 | 2 | -5.28 | 11.3 | -10.6 | 16.3 | 8.18 | 14.9 | -1.52 | 14.9 | 14.9 | -12.1 | 16.6 | -7.88 | inhibition at 10 µM [21]: -12.9%; inhibition at 10 µM [22]: 20.9%; anticancer activity (in words) [23]: minimal anticancer activity
3 | C=CCn1c(SC/C(=N\O)c2ccccc2)nnc1-c1c[nH]c2ccccc12 [Compound 7a, (Z)-2-((4-Allyl-5-(1H-indol-3-yl)-4H-1,2,4-triazol-3-yl)thio)-1-phenylethanone Oxime] | 3.82 | -3.51 | 6.71 | 0.66 | 2.04 | 9.24 | 4.41 | 9.66 | -2.55 | -2.96 | -5.56 | 15.4 | 2.51 | 12.1 | -0.17 | 9.77 | 0.38 | -4.5 | 12.4 | -6.77 | inhibition at 10 µM [21]: -3.17%; inhibition at 10 µM [22]: 13.6%; anticancer activity (in words) [23]: minimal anticancer activity
